Laboratory results published in patent US10166218B2, “3-(1H-indol-2-yl)-1H-pyrazolo[3,4-C]pyridines and therapeutic uses thereof” (Samumed, LLC, priority 2015, dated 2019).

Columns and labels:
Type in all cases: cell-based
[1] = tested on: Wnt activity (Sp5-Luc reporter, TCF/LEF binding sites) in SW480 colon carcinoma cells; assay: Screening assay for Wnt activity: Sp5-Luc reporter gene assay in stably transduced SW480 cells; conditions: Homo sapiens, overnight incubation
Text: The screening assay for Wnt activity is described as follows. Reporter cell lines can be generated by stably transducing cancer cell lines (e.g., colon cancer) or primary cells (e.g., IEC-6 intestinal cells) with a lentiviral construct that includes a Wnt-responsive promoter driving expression of the firefly luciferase gene.
SW480 colon carcinoma cells were transduced with a lentiviral vector expressing luciferase with a human Sp5 promoter consisting of a sequence of eight TCF/LEF binding sites. SW480 cells stably expressing the Sp5-Luc reporter gene and a hygromycin resistance gene were selected by treatment with 150 μg/mL of hygromycin for 7 days. These stably transduced SW480 cells were expanded in cell culture and used for all further screening activities. Each compound was dissolved in DMSO as a 10 mM stock and used to prepare compound source plates. Serial dilution (1:3, 10-point dose-response curves starting from 10 μM) and compound transfer was performed using the ECHO 550 (Labcyte, Sunnyvale, Calif.) into 384-well white solid bottom assay plates (Greiner Bio-One) with appropriate DMSO backfill for a final DMSO concentration of 0.1%. For Sp5-Luc reporter gene assays, the cells were plated at 4,000 cells/well in 384-well plates with medium containing 1% fetal bovine serum and incubated overnight at 37° C. and 5% CO2. Following incubation, 20 μl of BrightGlo luminescence reagent (Promega) was added to each well of the 384-well assay plates. The plates were placed on an orbital shaker for 2 min and then luminescence was quantified using the Envision (Perkin Elmer) plate reader. Readings were normalized to DMSO only treated cells, and normalized activities were utilized for EC50 calculations using the dose-response log (inhibitor) vs. response-variable slope (four parameters) nonlinear regression feature available in GraphPad Prism 5.0 (or Dotmatics). For EC50 of >10 μM, the percent inhibition at 10 μM is provided.

SW480 colon cancer cells = assay: Cell viability assay (CellTiter-Blue) in SW480 colon cancer cells; conditions: Homo sapiens, 96 h, four days, CellTiter-Blue
Method: Representative compounds were screened using the following assay procedure to assess the effect on cell viability as described below.
Each compound was dissolved in DMSO as a 10 mM stock and used to prepare compound source plates. Serial dilution (1:3, 8-point dose-response curves from 10 μM to 0.0045 μM) and compound transfer was performed using the ECHO 550 (Labcyte, Sunnyvale, Calif.) into 96-well clear bottom, black-walled plates (Corning-Costar).
Approximately 2×10^3 SW480 colon cancer cells were seeded into each well and allowed to incubate in the presence or absence of compound for four days at 37° C./5% CO2. Eight replicates of DMSO-treated cells served as controls and cells treated with compound were performed in duplicate.
After incubation, 20 μL of CellTiter-Blue (Promega) was added to each well allowed to incubate for approximately 3 hours. This reagent was a buffered solution which contains resazurin, metabolically active cells were able to reduce rezarurin (blue) into resorufin (pink) which was highly fluorescent. This measured fluorescence was used as a readout for cell viability.
After incubation, the plates were read at Ex 560 nm Em 590 nm (Cytation 3, BioTek). Dose-response curves were generated and EC50 concentration values were calculated using non-linear regression curve fit in the GraphPad Prism (San Diego, Calif.) or Dotmatics' Studies Software (Bishops Stortford, UK). For EC50 of >10 μM, the percent inhibition at 10 μM is provided.

[2] = tested on: primary human fibroblasts derived from IPF patients (LL29 cells) treated with TGF-β1; α-smooth muscle actin (αSMA); assay: Inhibition of the fibrotic process: αSMA staining in TGF-β1 treated primary human fibroblasts from IPF patients (LL29 cells); conditions: Fibroblast, 96 h, TGF-β1 20 ng/mL, 4 days, % cells positive for αSMA
Text: Representative compounds were screened using primary human fibroblasts (derived from IPF patients) treated with TGF-β1 to determine their ability to inhibit the fibrotic process.
Primary human fibroblasts derived from IPF patients (LL29 cells) [^1Xiaoqiu Liu, et. al., “Fibrotic Lung Fibroblasts Show Blunted Inhibition by cAMP Due to Deficient cAMP Response Element-Binding Protein Phosphorylation”, Journal of Pharmacology and Experimental Therapeutics (2005), 315(2), 678-687; ^2Watts, K. L., et. al., “RhoA signaling modulates cyclin D1 expression in human lung fibroblasts; implications for idiopathic pulmonary fibrosis”, Respiratory Research (2006), 7(1), 88] were obtained from American Type Culture Collection (ATCC) and expanded in F12 medium supplemented with 15% Fetal Bovine Serum and Penicillin/Streptomycin.
Each compound was dissolved in DMSO as a 10 mM stock and used to prepare compound source plates. Serial dilution (1:2, 11-point dose-response curves from 10 μM to 1.87 nM) and compound transfer was performed using the ECHO 550 (Labcyte, Sunnyvale, Calif.) into 384-well clear bottom assay plates (Greiner Bio-One) with appropriate DMSO backfill for a final DMSO concentration of 0.1%. LL29 cells are plated at 1,500 cells/well in 80 μL/well F12 medium supplemented with 1% Fetal Bovine Serum. One hour after addition of the cells, TGF-β1 (Peprotech; 20 ng/mL) was added to the plates to induce fibrosis (ref. 1 and 2 above). Wells treated with TGF-β1 and containing DMSO were used as controls. Cells were incubated at 37° C. and 5% CO2 for 4 days. Following incubation for 4 days, SYTOX green nucleic acid stain (Life Technologies [Thermo Fisher Scientific]) was added to the wells at a final concentration of 1 μM and incubated at room temperature for 30 min. Cells were then fixed using 4% formaldehyde (Electron Microscopy Sciences), washed 3 times with PBS followed by blocking and permeabilization using 3% Bovine Serum Albumin (BSA; Sigma) and 0.3% Triton X-100 (Sigma) in PBS. Cells were then stained with antibody specific to α-smooth muscle actin (αSMA; Abcam) (ref. 1 and 2 above) in 3% Bovine Serum Albumin (BSA; Sigma) and 0.3% Triton X-100 (Sigma) in PBS, and incubated overnight at 4° C. Cells were then washed 3 times with PBS, followed by incubation with Alexa Flor-647 conjugated secondary antibody (Life Technologies [Thermo Fisher Scientific]) and DAPI at room temperature for 1 hour. Cells were then washed 3 times with PBS and plates were sealed for imaging. αSMA staining was imaged by excitation at 630 nm and emission at 665 nm and quantified using the Compartmental Analysis program on the CellInsight CX5 (Thermo Scientific). Dead or apoptotic cells were excluded from analysis based on positive SYTOX green staining. % of total cells positive for αSMA were counted in each well and normalized to the average of 11 wells treated with TGF-β1 on the same plate using Dotmatics' Studies Software. The normalized averages (fold change over untreated) of 3 replicate wells for each compound concentration were used to create dose-responses curves and EC50 values were calculated using non-linear regression curve fit in the Dotmatics' Studies Software. For EC50 of >10 μM, the percent inhibition at 10 μM is provided.

IL-6 (THP-1 cells) = assay: Inhibition of IL-6 in LPS-stimulated THP-1 human monocyte cells (HTRF); conditions: inhibition of IL-6 in LPS-stimulated THP-1 cells, HTRF, 10-point dose-response starting from 10 μM
Method: Human monocyte cell line (THP-1 cells; Catalog # TIB-202, ATCC, Manassas, Va.) were cultured in Roswell Park Memorial Institute (RPMI) 1640 Medium (Catalog #21870-100, Buffalo, N.Y.) with 1% L-glutamine, 1% HEPES, 1% Sodium Pyruvate, 2% Sodium Bicarbonate supplemented with 100 units/mL penicillin, 50 μg/mL streptomycin, 2-mercaptoethanol (0.05 mM) [basal medium] and 10% fetal bovine serum (Catalog #16140089, Life Technologies, Carlsbad, Calif.) at 37° C. and 5% CO2.
THP-1 cells were cultured in basal media with 1% FBS for 24 hours before the start of the assay. Each compound was dissolved in DMSO as a 10 mM stock and used to prepare compound source plates. Serial dilution (1:3, 10-point dose-response curves starting from 10 μM) and compound transfer was performed using the ECHO 550 (Labcyte, Sunnyvale, Calif.) into 384-well white low volume assay plates (Greiner Bio-One) with appropriate DMSO backfill for a final DMSO concentration of 0.1%. THP-1 cells were plated at 5000 cells/well in the 384-well plates and incubated at 37° C. for 2 h. 500 ng/mL of LPS was added after 2 hours and cells were incubated for another 22 hours at 37° C. Plates were spun in a centrifuge for 1 minute at […] and a mixture of anti-IL6 XL665, and anti-IL6 Cryptate diluted in reconstitution buffer (Cisbio Inc.) was added to each well. Following incubation for 3 hrs at room temperature, Homogeneous Time-Resolved Fluorescence (HTRF) was measured using the Envision (Perkin Elmer) at 665 nm and […]. The ratio of fluorescence at 665 nm to 620 nm was used as a readout for IL6 quantification. All samples were processed in duplicate. Readings were normalized to DMSO treated cells and normalized activities were utilized for EC50 calculations using the dose-response log (inhibitor) vs. response-variable slope (four parameters) nonlinear regression feature available in GraphPad Prism 5.0 (or Dotmatics). For EC50 of >10 μM, the percent inhibition at 10 μM is provided.

For `CC(C)CC(=O)Nc1cncc(-c2cc3c(-c4cc5c(-c6ccncc6)cccc5[nH]4)n[nH]c3cn2)c1` [Compound 114, 3-Methyl-N-(5-(3-(4-(pyridin-4-yl)-1H-indol-2-yl)-1H-pyrazolo[3,4-c]pyridin-5-yl)pyridin-3-yl)butanamide], the EC50 [1] was 0.469 µM, the EC50 (SW480 colon cancer cells) was 6.98 µM and the EC50 [2] was 0.033 µM. For the same compound, the EC50 (IL-6 (THP-1 cells)) was 1.08 µM.

`CC(C)Nc1cncc(-c2cc3c(-c4cc5c(-c6ccncc6)cccc5[nH]4)n[nH]c3cn2)c1` [Compound 124, N-Isopropyl-5-(3-(4-(pyridin-4-yl)-1H-indol-2-yl)-1H-pyrazolo[3,4-c]pyridin-5-yl)pyridin-3-amine] showed an EC50 [1] of 0.108 µM, an EC50 (SW480 colon cancer cells) of 5.83 µM and an EC50 [2] of 0.138 µM. For the same compound, the EC50 (IL-6 (THP-1 cells)) was 3.35 µM.

For `CC(C)CC(=O)Nc1cncc(-c2cc3c(-c4cc5c(N6CCCCC6)cccc5[nH]4)n[nH]c3cn2)c1` [Compound 170, 3-Methyl-N-(5-(3-(4-(piperidin-1-yl)-1H-indol-2-yl)-1H-pyrazolo[3,4-c]pyridin-5-yl)pyridin-3-yl)butanamide], the EC50 [1] was 1.33 µM, the EC50 (SW480 colon cancer cells) was 4.65 µM and the EC50 [2] was 0.902 µM. The EC50 (IL-6 (THP-1 cells)) was 4.29 µM.

Work on `CCC(=O)Nc1cncc(-c2cc3c(-c4cc5c(-c6cccc(F)c6)cccc5[nH]4)n[nH]c3cn2)c1` [Compound 1, N-(5-(3-(4-(3-Fluorophenyl)-1H-indol-2-yl)-1H-pyrazolo[3,4-c]pyridin-5-yl)pyridin-3-yl)propionamide] yielded an EC50 [1] of 0.57 µM, an EC50 (SW480 colon cancer cells) of 4.07 µM and an EC50 [2] of 0.529 µM. It also gave an EC50 (IL-6 (THP-1 cells)) of 2.92 µM.

Compound `CCNCc1cncc(-c2cc3c(-c4cc5c(N6CCCCC6)cccc5[nH]4)n[nH]c3cn2)c1` [Compound 174, N-((5-(3-(4-(Piperidin-1-yl)-1H-indol-2-yl)-1H-pyrazolo[3,4-c]pyridin-5-yl)pyridin-3-yl)methyl)ethanamine] has an EC50 [1] of 0.553 µM, an EC50 (SW480 colon cancer cells) of 1.08 µM and an EC50 [2] of 0.65 µM. For the same compound, the EC50 (IL-6 (THP-1 cells)) was 0.167 µM.

With `CC(C)Nc1cncc(-c2cc3c(-c4cc5c(-c6cc(F)cc(CNS(C)(=O)=O)c6)cccc5[nH]4)n[nH]c3cn2)c1` [Compound 488, N-(3-Fluoro-5-(2-(5-(5-(isopropylamino)pyridin-3-yl)-1H-pyrazolo[3,4-c]pyridin-3-yl)-1H-indol-4-yl)benzyl)methanesulfonamide] the EC50 [1] was 0.157 µM, the EC50 (SW480 colon cancer cells) was 0.688 µM and the EC50 [2] was 0.182 µM. For the same compound, the EC50 (IL-6 (THP-1 cells)) was 0.526 µM.

In the case of `Fc1ccccc1-c1cccc2[nH]c(-c3n[nH]c4cnc(-c5cccnc5)cc34)cc12` [Compound 60, 3-(4-(2-Fluorophenyl)-1H-indol-2-yl)-5-(pyridin-3-yl)-1H-pyrazolo[3,4-c]pyridine], the EC50 [1] is reported as 0.74 µM, the EC50 (SW480 colon cancer cells) is reported as 0.909 µM and the EC50 [2] is reported as 0.09 µM. It also gave an EC50 (IL-6 (THP-1 cells)) of 2.57 µM.

`O=C(Cc1ccccc1)Nc1cncc(-c2cc3c(-c4cc5c(-c6ccccn6)cccc5[nH]4)n[nH]c3cn2)c1` [Compound 150, 2-Phenyl-N-(5-(3-(4-(pyridin-2-yl)-1H-indol-2-yl)-1H-pyrazolo[3,4-c]pyridin-5-yl)pyridin-3-yl)acetamide] gave an EC50 [1] of 1.42 µM, an EC50 (SW480 colon cancer cells) of 2.97 µM and an EC50 [2] of 0.531 µM. The EC50 (IL-6 (THP-1 cells)) was 2.02 µM.

`CN1CCN(c2cccc3[nH]c(-c4n[nH]c5cnc(-c6cncc(N)c6)cc45)cc23)CC1` [Compound 227, 5-(3-(4-(4-Methylpiperazin-1-yl)-H-indol-2-yl)-1H-pyrazolo[3,4-c]pyridin-5-yl)pyridin-3-amine] was tested, and the EC50 [1] was 1.16 µM, the EC50 (SW480 colon cancer cells) was 2.61 µM and the EC50 [2] was 1.91 µM. For the same compound, the EC50 (IL-6 (THP-1 cells)) was 1.08 µM.

`Fc1cccc(-c2cccc3[nH]c(-c4n[nH]c5cnc(-c6ccccn6)cc45)cc23)c1` [Compound 28, 3-(4-(3-Fluorophenyl)-1H-indol-2-yl)-5-(pyridin-2-yl)-1H-pyrazolo[3,4-c]pyridine] was tested, and the EC50 [1] was 2.25 µM, the EC50 (SW480 colon cancer cells) was 3.53 µM and the EC50 [2] was 1.18 µM. The EC50 (IL-6 (THP-1 cells)) was 3.6 µM.

Work on `CCCCC(=O)Nc1cncc(-c2cc3c(-c4cc5c(N6CCN(C)CC6)cccc5[nH]4)n[nH]c3cn2)c1` [Compound 243, N-(5-(3-(4-(4-Methylpiperazin-1-yl)-H-indol-2-yl)-1H-pyrazolo[3,4-c]pyridin-5-yl)pyridin-3-yl)pentanamide] yielded an EC50 [1] of 1.05 µM, an EC50 (SW480 colon cancer cells) of 2.14 µM and an EC50 [2] of 1.01 µM. The EC50 (IL-6 (THP-1 cells)) was 3.23 µM.
